# Test results from article PMC6934184, “Selective DNA-PKcs inhibition extends the therapeutic index of localized radiotherapy and chemotherapy” (The Journal of Clinical Investigation, 2019).
# Biological target: T1, AURKA (Aurora A) (Homo sapiens, UniProt O14965)
# T1 construct: purchased Thermo Fisher Scientific (Life Technologies) SelectScreen
# Assay: SelectScreen Z'LYTE
# Type: biochemical
# Summary of the method: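 SelectScreen broad panel; activity (Z'LYTE, Adapta) plus binding formats. ATP: Km app for CSF1R Z'LYTE; 10 for CAMK1 Adapta. Readout = % per kinase.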
# T1 sequence (O14965 whole entry): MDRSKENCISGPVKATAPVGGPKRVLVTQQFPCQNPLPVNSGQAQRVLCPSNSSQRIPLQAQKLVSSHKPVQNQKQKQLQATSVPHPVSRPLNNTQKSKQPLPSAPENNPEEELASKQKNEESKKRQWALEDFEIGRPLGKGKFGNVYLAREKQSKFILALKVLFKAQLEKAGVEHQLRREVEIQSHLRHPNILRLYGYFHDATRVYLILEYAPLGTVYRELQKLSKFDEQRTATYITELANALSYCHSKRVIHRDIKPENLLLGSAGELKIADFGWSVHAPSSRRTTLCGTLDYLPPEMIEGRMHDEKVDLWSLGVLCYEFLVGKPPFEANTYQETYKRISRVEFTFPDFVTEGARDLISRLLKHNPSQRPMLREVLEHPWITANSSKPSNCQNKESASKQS
smiles,measurement,value
CN(C(=O)CN1CCOCC1)c1ccc2sc3c(-c4cccc5c(=O)cc(N6CC7CCC(C6)O7)oc45)cccc3c2c1 [NU5455],inhibition at 1 µM,-0.1%
